Counter-ions that a name gives are not always drawn.
What follows are molecules tested against T1, mGlyT-1b (Mus musculus, UniProt P28571) (assay: Glycine uptake inhibition assay (mGlyT-1b)). Conditions: [3H]-glycine uptake, Flp-in-CHO cells stably transfected with mGlyT1b cDNA, 20 min preincubation at 22° C.
T1 construct: host or cells: Flp-in-CHO
T1 sequence (P28571 1-651 isoform P28571-2): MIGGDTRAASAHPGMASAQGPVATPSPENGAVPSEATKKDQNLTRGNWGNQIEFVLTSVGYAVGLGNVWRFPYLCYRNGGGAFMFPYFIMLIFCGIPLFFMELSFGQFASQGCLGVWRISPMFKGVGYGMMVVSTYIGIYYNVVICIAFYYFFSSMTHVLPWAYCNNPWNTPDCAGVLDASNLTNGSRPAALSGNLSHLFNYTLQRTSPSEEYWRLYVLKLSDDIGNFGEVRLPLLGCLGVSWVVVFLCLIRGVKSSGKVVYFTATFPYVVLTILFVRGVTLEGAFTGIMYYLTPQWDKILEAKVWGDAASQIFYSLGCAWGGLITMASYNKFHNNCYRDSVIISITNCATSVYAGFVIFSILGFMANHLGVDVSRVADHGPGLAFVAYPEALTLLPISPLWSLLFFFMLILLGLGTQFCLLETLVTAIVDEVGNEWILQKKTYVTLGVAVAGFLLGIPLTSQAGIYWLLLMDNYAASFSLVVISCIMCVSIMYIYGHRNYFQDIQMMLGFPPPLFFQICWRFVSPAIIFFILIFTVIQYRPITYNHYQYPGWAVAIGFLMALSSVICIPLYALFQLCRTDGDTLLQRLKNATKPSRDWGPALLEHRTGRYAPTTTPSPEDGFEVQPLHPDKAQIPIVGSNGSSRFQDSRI
Type: cell-based
Procedure, shortened: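 Flp-in CHO cells stably expressing mouse GlyT-1b were preincubated for 20 min at 22° C in pH 7.4 Hepes-Tris buffer with a range of inhibitor concentrations, with 10 mM unlabeled glycine defining nonspecific uptake. [^3H]-glycine (60 nM) plus 25 μM unlabeled glycine was then added. Cell-associated radioactivity after ice-cold washes gave IC50.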
With `COc1cc(C(F)(F)F)cc(SC)c1C(=O)N[C@]1(c2ccccc2)CCCN(C)C1` (stereo in doubt) [Example 37, 2-Methoxy-N-((S)-1-methyl-3-phenyl-piperidin-3-yl)-6-methylsulfanyl-4-trifluoromethyl-benzamide hydrochloride] the IC50 was 182 nM. `COc1cc(C(F)(F)F)cc(SC)c1C(=O)N[C@@]1(c2ccccc2)CCCN(C)C1` (stereo in doubt) [Example 38, 2-Methoxy-N-((R)-1-methyl-3-phenyl-piperidin-3-yl)-6-methylsulfanyl-4-trifluoromethyl-benzamide hydrochloride] showed an IC50 of 10.1 nM. In the case of `CN1CCC[C@](NC(=O)c2ccc(C(F)(F)F)cc2C2CC2)(c2ccccc2)C1` (stereo in doubt) [Example 56, 2-Cyclopropyl-N-((S)-1-methyl-3-phenyl-piperidin-3-yl)-4-trifluoromethyl-benzamide hydrochloride], the IC50 is reported as 162 nM. Molecule `CN1CCC[C@@](NC(=O)c2ccc(C(F)(F)F)cc2C2CC2)(c2ccccc2)C1` (stereo in doubt) [Example 57, 2-Cyclopropyl-N-((R)-1-methyl-3-phenyl-piperidin-3-yl)-4-trifluoromethyl-benzamide hydrochloride] has an IC50 of 22.7 nM. In the case of `COc1cc(C(F)(F)F)cc(SC)c1C(=O)N[C@@]1(c2ccccc2)C[C@H](OC)CN(C)C1` (stereo in doubt) [Example 75, 2-Methoxy-N-((3RS,5SR)-5-methoxy-1-methyl-3-phenyl-piperidin-3-yl)-6-methylsulfanyl-4-trifluoromethyl-benzamide], the IC50 is reported as 53.8 nM. `COc1cc(C(F)(F)F)cc(SC)c1C(=O)N[C@@]1(c2ccccc2)C[C@H](OC)CN(C)C1` (stereo in doubt) [Example 108, 2-Methoxy-N-((3R,5S) or (3S,5R)-5-methoxy-1-methyl-3-phenyl-piperidin-3-yl)-6-methylsulfanyl-4-trifluoromethyl-benzamide] showed an IC50 of 40.9 nM. For `COc1cc(C(F)(F)F)cc(SC)c1C(=O)N[C@]1(c2ccccc2)C[C@@H](OC)CN(C)C1` (stereo in doubt) [Example 109, 2-Methoxy-N-((3S,5R) or (3R,5S)-5-methoxy-1-methyl-3-phenyl-piperidin-3-yl)-6-methylsulfanyl-4-trifluoromethyl-benzamide], the IC50 was 151 nM.

From patent publication US9067911B2, “Piperidine derivatives” (Hoffmann-La Roche Inc., priority 2009, dated 2015)
